One test concerns the target T1, DAPK1 (Homo sapiens, UniProt P53355).
T1 construct: purchased Reaction Biology Corp
Put plainly: In vitro kinase inhibition assay (HotSpot, Reaction Biology). The format is biochemical. Conditions: single dose of 10 µM; read-out: Percent Inhibition, DAPK1. The method, then: (§1) The in vitro kinase inhibition assay was carried out by Reaction Biology Corp. (Reaction Biology Corp., Chester, PA, USA) Kinase HotSpot^SM service (http://www.reactionbiology.com, accessed on 15 January 2021), following the previously reported methods. (For details, see Supplementary Material).
(§2) As mentioned in the introduction, to get insights about the kinase inhibition profile of the hybrid small molecule 5a, an in vitro screening over a panel of 14 cancer-related kinases was carried out. Accordingly, 10 µM concentrations of compound 5a were used in a kinase inhibition assay over various kinase groups and families in the presence of 10 µM ATP using HotSpotSM technology. To get a comprehensive picture of the inhibitory activities of the tested compound (5a) against the kinase panel, data are illustrated in Table 1. […] Compound 5a was also able to suppress the kinase activity of the epidermal growth factor receptor (EGFR), platelet-derived growth factor receptor-alpha (PDGFRα), and cyclin-dependent kinase 2 (CDK2) with modest inhibition values of 26.99 ± 0.9, 24.0 ± 0.4, and 20.1 ± 0.1%, respectively. […] Several studies have confirmed direct relationships between the most affected kinases (FMS, LCK, LYN, and DAPK1) and different human disorders including cancer.
(§3) 5. Protocol of Kinase assay
(§4) Kinases inhibitory activities were assessed by the HotSpot assay platform, which contained specific kinase/substrate pairs along with required cofactors. Base reaction buffer: 20 mM Hepes (pH 7.5), 10 mM MgCl2, 1 mM EGTA, 0.02% Brij35, 0.02 mg/ml BSA, 0.1 mM Na3VO4, 2 mM DTT, 1% DMSO. Testing compounds were dissolved in 100% DMSO to specific concentration. The serial dilution was conducted by Integra Viaflo Assist in DMSO. The reaction mixture containing the examined compound and 33P-ATP was incubated at room temperature for 2h and radioactivity was detected by filter-binding method. Kinase activity data were expressed as the percent remaining kinase activity in test samples compared to vehicle (dimethyl sulfoxide) reactions. IC50 values and curve fits were obtained using Prism (GraphPad Software).
(§5) 6. Biology raw data for IC50 determination
(§6) Paper ID Cpd ID NSC Number

In another test the target is T2, LYN (Homo sapiens, UniProt P07948).
T2 construct: purchased Reaction Biology Corp
T2 sequence (P07948 whole entry): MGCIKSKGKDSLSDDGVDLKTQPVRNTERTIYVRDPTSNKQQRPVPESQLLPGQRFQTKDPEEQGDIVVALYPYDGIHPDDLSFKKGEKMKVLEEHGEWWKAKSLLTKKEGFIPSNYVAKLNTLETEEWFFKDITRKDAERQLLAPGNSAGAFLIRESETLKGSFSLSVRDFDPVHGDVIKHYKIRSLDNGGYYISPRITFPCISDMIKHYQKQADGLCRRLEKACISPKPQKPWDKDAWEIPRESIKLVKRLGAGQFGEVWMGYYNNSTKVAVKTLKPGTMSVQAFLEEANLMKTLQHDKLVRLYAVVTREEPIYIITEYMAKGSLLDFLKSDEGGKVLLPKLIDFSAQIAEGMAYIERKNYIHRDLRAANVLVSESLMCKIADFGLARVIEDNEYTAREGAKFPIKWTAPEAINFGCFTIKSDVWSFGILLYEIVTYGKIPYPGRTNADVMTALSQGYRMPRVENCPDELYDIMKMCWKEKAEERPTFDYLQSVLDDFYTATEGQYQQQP
The test is described as above. The format is biochemical. Conditions: single dose of 10 µM; 10 µM ATP as printed; read-out: Percent Inhibition, LYN. Here is the method: as §1, §2, §3, §4, §5, §6

The target of a further test is T3, LCK (Homo sapiens, UniProt P06239).
T3 construct: purchased Reaction Biology Corp
T3 sequence (P06239 whole entry): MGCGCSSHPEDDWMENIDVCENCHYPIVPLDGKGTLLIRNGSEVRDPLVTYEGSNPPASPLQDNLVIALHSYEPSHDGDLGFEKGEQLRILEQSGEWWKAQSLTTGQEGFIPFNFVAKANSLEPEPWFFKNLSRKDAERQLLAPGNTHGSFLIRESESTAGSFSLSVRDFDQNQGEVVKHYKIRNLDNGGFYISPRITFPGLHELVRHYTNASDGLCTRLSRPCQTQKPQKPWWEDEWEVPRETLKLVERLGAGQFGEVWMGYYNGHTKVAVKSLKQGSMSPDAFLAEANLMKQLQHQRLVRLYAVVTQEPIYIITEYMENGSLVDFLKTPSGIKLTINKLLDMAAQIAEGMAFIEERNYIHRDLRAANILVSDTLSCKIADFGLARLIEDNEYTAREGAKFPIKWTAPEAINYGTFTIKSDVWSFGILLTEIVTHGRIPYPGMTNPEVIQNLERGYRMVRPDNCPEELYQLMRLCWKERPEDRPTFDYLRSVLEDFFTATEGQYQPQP
The test is described as above. Type of test: biochemical. Conditions: single dose of 10 µM; 10 µM ATP as printed; read-out: Percent Inhibition, LCK. Here is the method:
as §1, §2, §3, §4, §5, §6

The subject of another test is HT29. Put plainly: NCI growth inhibition (SRB) assay. The format is cell-based. Conditions: Homo sapiens, HT-29, HT29, Colon Cancer, single dose 10 µM, 48 h, read-out: Percent Growth Inhibition (GI). Here is the method: (§7) The antitumor assay was performed according to the protocol of the Drug Evaluation Branch, NCI, Bethesda. A 48 h drug exposure protocol was adopted, and sulforhodamine B (SRB) assay was utilized to assess the cell growth and viability, as reported earlier.
(§8) The inhibition results of tumor cell growth by the newly synthesized compounds (5a–5g) are described in Table 4. The reported measurements have been performed at the NIH National Cancer Institute, USA by a standardized assay including a panel of 60 different tumor cell lines (Supplementary Data). The following cancer cell types were included in these assays: Leukemia, non-small cell lung cancer, colon cancer, CNS cancer, melanoma, ovarian cancer, renal cancer, prostate, and breast cancer. […] Additionally, the 3,4-dimethoxy substituted compound (5b) also suffered poor activity against the cancer cell lines.

Another test concerns SNB-75. Kind of test: NCI growth inhibition (SRB) assay. Conditions: Homo sapiens, SNB-75, CNS Cancer, single dose 10 µM, 48 h, read-out: Percent Growth Inhibition (GI). Type of test: cell-based. The method, then:
as §7, §8

The next test deals with HCT-15. Kind of test: NCI growth inhibition (SRB) assay. Type of test: cell-based. Conditions: Homo sapiens, HCT-15, Colon Cancer, single dose 10 µM, 48 h, read-out: Percent Growth Inhibition (GI). Here is the method: as §7, §8
The next test has as its system SF-539. Kind of test: NCI growth inhibition (SRB) assay. The format is cell-based. Conditions: Homo sapiens, SF-539, CNS Cancer, single dose 10 µM, 48 h, read-out: Percent Growth Inhibition (GI). Here is the method:
as §7, §8

Another test has as its system PC-3. Put plainly: NCI growth inhibition (SRB) assay. Conditions: Homo sapiens, PC-3, Prostate Cancer, single dose 10 µM, 48 h, read-out: Percent Growth Inhibition (GI). Type of test: cell-based. Here is the method: as §7, §8
A further test has as its system NCI-H522. Put plainly: NCI growth inhibition (SRB) assay. The format is cell-based. Conditions: Homo sapiens, NCI-H522, Non-Small Cell Lung Cancer, single dose 10 µM, 48 h, read-out: Percent Growth Inhibition (GI). Here is the method:
as §7, §8

Another test has as its system HCT-116. Kind of test: NCI growth inhibition (SRB) assay. Type of test: cell-based. Conditions: Homo sapiens, HCT-116, Colon Cancer, single dose 10 µM, 48 h, read-out: Percent Growth Inhibition (GI). Here is the method:
as §7, §8

A further test has as its system HS 578T. Put plainly: NCI growth inhibition (SRB) assay. Type of test: cell-based. Conditions: Homo sapiens, Breast Cancer, single dose 10 µM, 48 h, read-out: Percent Growth Inhibition (GI). The method, then:
as §7, §8

The test system of the next test is RPMI-8226. Put plainly: NCI growth inhibition (SRB) assay. The format is cell-based. Conditions: Homo sapiens, RPMI-8226, Leukemia, single dose 10 µM, 48 h, read-out: Percent Growth Inhibition (GI). Here is the method:
as §7, §8

In a further test the test system is RXF 393. Kind of test: NCI growth inhibition (SRB) assay. Conditions: Homo sapiens, RXF 393, Renal Cancer, single dose 10 µM, 48 h, read-out: Percent Growth Inhibition (GI). The format is cell-based. The method, then:
as §7, §8

The next test has as its system CAKI-1. Kind of test: NCI growth inhibition (SRB) assay. The format is cell-based. Conditions: Homo sapiens, CAKI-1, Renal Cancer, single dose 10 µM, 48 h, read-out: Percent Growth Inhibition (GI). The method, then:
as §7, §8

Another test deals with UACC-62. Put plainly: NCI growth inhibition (SRB) assay. The format is cell-based. Conditions: Homo sapiens, UACC-62, Melanoma, single dose 10 µM, 48 h, read-out: Percent Growth Inhibition (GI). The method, then: as §7, §8
The subject of the next test is MCF7. Kind of test: NCI growth inhibition (SRB) assay. The format is cell-based. Conditions: Homo sapiens, MCF7, Breast Cancer, single dose 10 µM, 48 h, read-out: Percent Growth Inhibition (GI). Here is the method: as §7, §8
A further test deals with HL-60(TB). Kind of test: NCI growth inhibition (SRB) assay. The format is cell-based. Conditions: Homo sapiens, Leukemia, single dose 10 µM, 48 h, read-out: Percent Growth Inhibition (GI). Here is the method: as §7, §8
A further test deals with MOLT-4. Put plainly: NCI growth inhibition (SRB) assay. Conditions: Homo sapiens, MOLT-4, Leukemia, single dose 10 µM, 48 h, read-out: Percent Growth Inhibition (GI). Type of test: cell-based. The method, then: as §7, §8
The next test deals with UO-31. Kind of test: NCI growth inhibition (SRB) assay. Type of test: cell-based. Conditions: Homo sapiens, UO-31, Renal Cancer, single dose 10 µM, 48 h, read-out: Percent Growth Inhibition (GI). Here is the method: as §7, §8

Inhibition data for two molecules are collected here from PMC8468039, “Development of New Meridianin/Leucettine-Derived Hybrid Small Molecules as Nanomolar Multi-Kinase Inhibitors with Antitumor Activity” (Biomedicines, 2021).

T1 sequence (P53355 whole entry): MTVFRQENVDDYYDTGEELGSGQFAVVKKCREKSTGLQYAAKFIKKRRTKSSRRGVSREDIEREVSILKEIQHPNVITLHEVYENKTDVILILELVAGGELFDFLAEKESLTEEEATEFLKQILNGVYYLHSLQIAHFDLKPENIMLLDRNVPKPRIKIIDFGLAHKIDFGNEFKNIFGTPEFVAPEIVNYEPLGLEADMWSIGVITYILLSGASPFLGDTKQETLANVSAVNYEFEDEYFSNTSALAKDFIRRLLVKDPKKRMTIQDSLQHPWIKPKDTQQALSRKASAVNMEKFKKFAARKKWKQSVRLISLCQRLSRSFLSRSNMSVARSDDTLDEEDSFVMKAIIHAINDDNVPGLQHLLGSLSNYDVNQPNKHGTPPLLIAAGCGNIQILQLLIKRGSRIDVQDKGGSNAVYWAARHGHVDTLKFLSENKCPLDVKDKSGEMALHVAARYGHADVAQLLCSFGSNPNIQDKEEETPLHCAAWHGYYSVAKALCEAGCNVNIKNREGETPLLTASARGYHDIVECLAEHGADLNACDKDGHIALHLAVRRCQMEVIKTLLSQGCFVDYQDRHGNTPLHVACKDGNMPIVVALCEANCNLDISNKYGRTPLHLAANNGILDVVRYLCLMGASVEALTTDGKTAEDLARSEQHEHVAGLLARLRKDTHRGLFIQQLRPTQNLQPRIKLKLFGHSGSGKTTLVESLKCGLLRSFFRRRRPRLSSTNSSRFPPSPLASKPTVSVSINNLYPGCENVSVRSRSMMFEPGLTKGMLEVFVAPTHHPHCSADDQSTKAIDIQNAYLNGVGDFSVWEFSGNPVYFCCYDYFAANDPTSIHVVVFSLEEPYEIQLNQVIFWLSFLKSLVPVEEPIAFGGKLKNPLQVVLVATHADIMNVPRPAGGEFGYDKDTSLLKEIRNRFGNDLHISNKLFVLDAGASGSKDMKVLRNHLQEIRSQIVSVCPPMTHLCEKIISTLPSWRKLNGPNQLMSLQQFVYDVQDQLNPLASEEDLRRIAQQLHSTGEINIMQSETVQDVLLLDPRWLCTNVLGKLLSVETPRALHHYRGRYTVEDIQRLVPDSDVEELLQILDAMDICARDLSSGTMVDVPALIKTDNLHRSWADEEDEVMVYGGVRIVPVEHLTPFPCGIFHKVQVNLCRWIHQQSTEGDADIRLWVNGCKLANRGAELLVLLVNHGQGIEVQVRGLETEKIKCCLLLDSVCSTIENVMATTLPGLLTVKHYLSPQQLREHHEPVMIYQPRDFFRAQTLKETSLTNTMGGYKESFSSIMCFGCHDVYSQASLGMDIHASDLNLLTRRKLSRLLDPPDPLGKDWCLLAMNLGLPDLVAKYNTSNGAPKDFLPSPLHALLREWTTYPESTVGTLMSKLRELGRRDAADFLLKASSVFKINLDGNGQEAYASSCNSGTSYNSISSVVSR

In the case of `COc1ccc(Oc2nc(Nc3ccc(N4CCOCC4)cc3)ncc2NC(=O)c2ccc(OC)c(OC)c2)cc1` [5b, 3,4-Dimethoxy-N-(4-(4-methoxyphenoxy)-2-((4-morpholinophenyl)amino)pyrimidin-5-yl)benzamide], the inhibition – broadly, the drop in the measured response relative to a control, in per cent – at 10 µM on DAPK1 was 65 ± 1.2%; at LYN, 36.9 ± 4.5%; at LCK it was 62.3 ± 0.8%; in the test on HT29, -2.93%; in the test with SNB-75 it was -4.29%; in the test with HCT-15, 12.3%. The inhibition at 10 µM with SF-539 is -3.17%; in the test with PC-3 it was 0.75%; in the test with NCI-H522, -3.5%; in the test on HCT-116, 6.01%; in the test on HS 578T, 5.09%; with RPMI-8226, 11.1%. Besides, the inhibition at 10 µM in the test on RXF 393 was determined as 20.4%; with CAKI-1 it was 20.6%; with UACC-62, 0.1%; in the test on MCF7, 4.24%; with HL-60(TB) it was 16.4%; in the test on MOLT-4, 19.9%. Also, the inhibition at 10 µM in the test with UO-31 was 33.6%.
Consider `COc1ccc(Oc2nc(Nc3ccc(N4CCOCC4)cc3)ncc2NC(=O)c2ccc3c(c2)OCO3)cc1` [5a, N-(4-(4-Methoxyphenoxy)-2-((4-morpholinophenyl)amino)pyrimidin-5-yl)benzo[d][1,3]dioxole-5-carboxamide], for which the inhibition at 10 µM at DAPK1 was 55 ± 1.1%; at LYN it was 75.2%; on LCK, 81.4 ± 0.6%; in the test with HT29 it was 28.3%; in the test with SNB-75, -3.98%; with HCT-15 it was 26%. Moreover, the inhibition at 10 µM with SF-539 worked out at 4.73%; with PC-3, 11.7%; in the test on NCI-H522, 22.7%; with HCT-116, 14.6%; in the test on HS 578T it was 6.26%; in the test with RPMI-8226, 21.8%. In addition, the inhibition at 10 µM is 50.5% in the test on RXF 393; 33.9% in the test on CAKI-1; 7.38% with UACC-62; 8.51% with MCF7; 16.2% in the test with HL-60(TB); 31.1% in the test on MOLT-4. Besides, the inhibition at 10 µM in the test with UO-31 is 36.7%.
